The test system of one test is cells. Put plainly: Primary mechanism study: cell viability with compound #10 and 2-APB (FIG. 10). The class given is cell-based. The settings on record: 2-APB added two hours before compound #10; cell viability after 48 hours.
The test system of a further test is SKBR-3 cells. Put plainly: MTT cell viability assay with SKBR-3 cells. Type of test: cell-based. The settings on record: Homo sapiens, SK-BR-3. The procedure:
SKBR-3 cells were obtained from ATCC (Rockville, Md.). […] Bovine serum was heat inactivated for 30 min in a 56° C. water bath before use. Cell cultures were grown at 37° C., in a humidified atmosphere of 5% CO2 in a Hereaus CO2 incubator. For all experiments, cells were seeded in 96 well plates with 5000 cells/well density.
Cells were grown in custom medium in 96-well, flat-bottomed plates for 24 h, and were exposed to various concentrations of nimesulide derivatives dissolved in DMSO (final concentration≦0.1%) in media for different time intervals. Controls received DMSO vehicle at a concentration equal to that in drug-treated cells. […] Supernatants were removed from the wells, and the reduced 3-(4,5-dimethylthiazol-2-yl)-2,5-diphenyl-2H-tetrazolium bromide dye was solubilized in 200 μl/well DMSO. Absorbance at 570 nm was determined on a plate reader.

The mark [1] stands for this setting: SKBR-3 cells, cell viability, read-out: IC50.

Where two headings read alike, the source gives them in different places.

On to `NCCOB(c1ccccc1)c1ccccc1` [Compound 2-APB, 2-aminoethoxydiphenyl borate, reference compound], for which, in the test on cells, the “rescue of cell death from compound #10 treatment (cell viability)” value is on record as “can partially rescue the cell death from compound #10 treatment”. Regarding `COc1ccc(OC)c(COc2cc(NC(=O)c3ccc(I)cc3)ccc2N(C)S(C)(=O)=O)c1` [Compound #40, N-[3-(2,5-dimethoxyl-benzyloxy)-4-(methanesulfonyl-methyl-amino)-phenyl]-4-iodo-benzamide], the IC50 in the test on SKBR-3 cells (setting [1]) was 1.8 ± 0.7 nM. For the compound `COc1ccc(C(=O)Nc2ccc(N(C)S(C)(=O)=O)c(OCc3cc(OC)ccc3OC)c2)cc1` [Compound #41, N-[3-(2,5-dimethoxy-benzyloxy)-4-(methanesulfonyl-methyl-amino)-phenyl]-4-methoxy-benzamide], in the test on SKBR-3 cells (setting [1]), the IC50 came out at 0.87 ± 0.33 nM.

For `COc1ccc(OC)c(COc2cc(NC(=O)c3ccc(Br)cc3)ccc2N(C)S(C)(=O)=O)c1` [Compound #42, N-[3-(2,5-dimethoxy-benzyloxy)-4-(methanesulfonyl-methyl-amino)-phenyl]-4-bromobenzamide], the IC50 with SKBR-3 cells came to 3.5 ± 1.9 nM.

For the compound `COc1ccc(OC)c(COc2cc(NC(=O)c3ccc4c(c3)OCO4)ccc2N(C)S(C)(=O)=O)c1` [Compound #43, N-[3-(2,5-dimethoxyl-benzyloxy)-4-(methanesulfonyl-methyl-amino)-phenyl]-1,3-benzodioxole-5-carboxamide], in the test with SKBR-3 cells, half-maximal inhibition (IC50) was put at 7.5 ± 2.8 nM. Take `COc1ccc(OC)c(COc2cc(NC(=O)c3ccc(OC)c(OC)c3)ccc2N(C)S(C)(=O)=O)c1` [Compound #44, N-[3-(2,5-dimethoxyl-benzyloxy)-4-(methanesulfonyl-methyl-amino)-phenyl]-3,4-dimethoxy-benzamide]: in the test with SKBR-3 cells (setting [1]), the IC50 came to 2.6 ± 1.3 nM. The same measure, in the same setting: next, `COc1ccc(OC)c(COc2cc(NC(=O)c3ccc4ccccc4c3)ccc2N(C)S(C)(=O)=O)c1` [Compound #45, N-[3-(2,5-dimethoxyl-benzyloxy)-4-(methanesulfonyl-methyl-amino)-phenyl]-2-naphthalenecarboxamide]: 16.6 ± 7.7 nM.

The record behind these values is US8802895B2, “Amide derivatives of benzene-sulfonanilide, pharmaceutical composition thereof and method for cancer treatment using the same” (Cleveland State University, priority 2010, dated 2014).
